Results from ChEMBL document CHEMBL5537180, “Discovery of Novel Aminobutanoic Acid-Based ASCT2 Inhibitors for the Treatment of Non-Small-Cell Lung Cancer” (J Med Chem, 2024).
Active and inactive are the calls of the source. The rule behind the calls is not given here.

Key:
A549 [1] = assay: Induction of autophagy in human A549 cells assessed as increase in LC3 II expression at 5 to 10 uM measured after 24 hrs by Western blot analysis; format: functional, cell-based; conditions: dose 5-10 µM
A549 [2] = assay: Induction of oxidative stress in human A549 cells assessed as upregulation of ROS production incubated for 24 hrs by DCFH-DA staining based flow cytometry analysis; format: functional, cell-based; conditions: dose 5-10 µM
NSCLC [3] = assay: Antiproliferative activity against human NSCLC cells cultured as 2422 organoids assessed as cell viability incubated for 96 hrs by Celltiter-glo viability assay; format: functional, cell-based
NSCLC [4] = assay: Antiproliferative activity against human NSCLC cells cultured as 2862 organoids assessed as cell viability incubated for 96 hrs by Celltiter-glo viability assay; format: functional, cell-based
[5] = MRT (0 to infinity) in Sprague-Dawley rat at 10 mg/kg, ip incubated for 24 hrs by LC-MS/MS analysis; format: ADME, organism-based; conditions: in vivo
NSCLC [6] = assay: Antiproliferative activity against human NSCLC cells cultured as H1975 organoids assessed as cell viability incubated for 96 hrs by Celltiter-glo viability assay; format: functional, cell-based
A549 [7] = assay: Induction of autophagy in human A549 cells assessed as downregulation of p70S6K level at 5 to 10 uM measured after 24 hrs by Western blot analysis; format: functional, cell-based; conditions: dose 5-10 µM
[8] = Toxicity in BALB/c nude mouse assessed as effect on spleen at 25 to 50 mg/kg, ip measured after 3 weeks by H and E staining based analysis; format: organism-based; conditions: in vivo, 504 h, dose 25-50 mg/kg
A549 [9] = assay: Antitumor activity against human A549 cells xenografted in BALB/c nude mouse assessed as inhibition of tumor volume at 25 to 50 mg/kg, ip measured daily for 3 weeks; format: functional, organism-based; conditions: dose 25-50 mg/kg
[10] = target: T1, Sodium-coupled neutral amino acid symporter 2 (Homo sapiens) (UniProt Q96QD8); assay: Inhibition of SNAT2 (unknown origin) overexpressed in HEK293 cells assessed as reduction in [13C]-Gln uptake preincubated for 5 mins followed by substrate addition and measured after 15 mins; format: cell-based; conditions: time 20.0 min
T1 sequence (whole entry): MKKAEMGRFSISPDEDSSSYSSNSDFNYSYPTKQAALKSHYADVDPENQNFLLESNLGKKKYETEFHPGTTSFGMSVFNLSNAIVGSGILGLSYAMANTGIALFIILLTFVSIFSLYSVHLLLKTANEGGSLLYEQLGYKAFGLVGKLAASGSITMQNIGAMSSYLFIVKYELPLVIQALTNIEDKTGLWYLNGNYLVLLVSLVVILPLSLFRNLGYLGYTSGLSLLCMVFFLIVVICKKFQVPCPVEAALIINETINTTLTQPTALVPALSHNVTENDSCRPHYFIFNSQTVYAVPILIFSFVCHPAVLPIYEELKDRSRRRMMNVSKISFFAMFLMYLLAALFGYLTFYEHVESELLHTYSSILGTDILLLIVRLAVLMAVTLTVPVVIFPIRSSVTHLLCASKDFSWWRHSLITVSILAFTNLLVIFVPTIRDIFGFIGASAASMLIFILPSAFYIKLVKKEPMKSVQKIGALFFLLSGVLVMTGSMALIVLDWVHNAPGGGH

[11] = Tmax in Sprague-Dawley rat at 10 mg/kg, ip incubated for 24 hrs by LC-MS/MS analysis; format: ADME, organism-based; conditions: in vivo
[12] = Apparent volume of distribution with respect to the bioavailability in Sprague-Dawley rat at 10 mg/kg, ip incubated for 24 hrs by LC-MS/MS analysis; format: ADME, organism-based; conditions: in vivo, read-out: Vc/F
A549 [13] = assay: Inhibition of Gln uptake in human A549 cells assessed as reduction in intracellular glutamate level incubated for 24 hrs by LC-MS/MS analysis; format: functional, cell-based
A549 [14] = assay: Induction of apoptosis in human A549 cells assessed as caspase 3 activation at 5 to 10 uM incubated for 24 hrs by Western blot analysis; format: functional, cell-based; conditions: dose 5-10 µM
[15] = Metabolic stability in rat liver microsomes assessed as half life; format: ADME, Microsome
A549 [16] = assay: Inhibition of Gln uptake in human A549 cells assessed as reduction in malate level incubated for 24 hrs by LC-MS/MS analysis; format: functional, cell-based
NSCLC [17] = assay: Antiproliferative activity against human NSCLC cells cultured as 2566 organoids assessed as cell viability incubated for 96 hrs by Celltiter-glo viability assay; format: functional, cell-based
[18] = Half life in Sprague-Dawley rat at 10 mg/kg, ip incubated for 24 hrs by LC-MS/MS analysis; format: ADME, organism-based; conditions: in vivo
A549 [19] = assay: Induction of autophagy in human A549 cells assessed as downregulation of p62 level at 5 to 10 uM measured after 24 hrs by Western blot analysis; format: functional, cell-based; conditions: dose 5-10 µM
A549 [20] = assay: Induction of apoptosis in human A549 cells assessed as downregulation of c-Myc expression at 5 to 10 uM incubated for 24 hrs by Western blot analysis; format: functional, cell-based; conditions: dose 5-10 µM
[21] = target: Large neutral amino acids transporter small subunit 1 (Homo sapiens) (UniProt Q01650); assay: Inhibition of LAT1 (unknown origin) overexpressed in HEK293 cells assessed as reduction in [13C]-Gln uptake preincubated for 5 mins followed by substrate addition and measured after 15 mins; format: cell-based; conditions: time 20.0 min
Large neutral amino acids transporter small subunit 1 (Homo sapiens), sequence (Q01650 whole entry): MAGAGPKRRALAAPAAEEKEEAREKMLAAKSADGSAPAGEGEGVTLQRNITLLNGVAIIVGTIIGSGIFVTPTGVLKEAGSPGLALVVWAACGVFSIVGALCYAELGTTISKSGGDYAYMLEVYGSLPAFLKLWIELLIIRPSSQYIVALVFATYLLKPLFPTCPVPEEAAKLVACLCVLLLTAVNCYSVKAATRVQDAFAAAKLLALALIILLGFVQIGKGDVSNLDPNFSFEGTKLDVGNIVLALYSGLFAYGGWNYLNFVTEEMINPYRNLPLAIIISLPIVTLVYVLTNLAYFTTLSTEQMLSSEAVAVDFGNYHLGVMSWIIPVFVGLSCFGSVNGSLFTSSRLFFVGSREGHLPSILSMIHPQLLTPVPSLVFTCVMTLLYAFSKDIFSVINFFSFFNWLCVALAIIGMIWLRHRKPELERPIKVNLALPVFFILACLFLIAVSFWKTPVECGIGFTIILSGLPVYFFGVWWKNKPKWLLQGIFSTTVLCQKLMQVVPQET

A549 [22] = assay: Inhibition of Gln uptake in human A549 cells assessed as reduction in succinate level incubated for 24 hrs by LC-MS/MS analysis; format: functional, cell-based
A549 [23] = assay: Antiproliferative activity against human A549 cells assessed as reduction in cell viability after 72 hrs by MTT assay; format: functional, cell-based; conditions: A549, 72 h
[24] = target: Large neutral amino acids transporter small subunit 1 (Homo sapiens) (UniProt Q01650); assay: Inhibition of LAT1 (unknown origin) overexpressed in human A549 cells assessed as reduction in [13C]-Gln uptake preincubated for 5 mins followed by substrate addition and measured after 15 mins; format: cell-based; conditions: time 20.0 min
[25] = target: T2, Neutral amino acid transporter B(0) (Homo sapiens, UniProt Q15758); assay: Inhibition of ASCT2 in human A549 cells assessed as reduction in glutamine uptake preincubated for 5 mins followed by substrate addition and measured after 15 mins; format: cell-based
T2 sequence (Q15758 whole entry): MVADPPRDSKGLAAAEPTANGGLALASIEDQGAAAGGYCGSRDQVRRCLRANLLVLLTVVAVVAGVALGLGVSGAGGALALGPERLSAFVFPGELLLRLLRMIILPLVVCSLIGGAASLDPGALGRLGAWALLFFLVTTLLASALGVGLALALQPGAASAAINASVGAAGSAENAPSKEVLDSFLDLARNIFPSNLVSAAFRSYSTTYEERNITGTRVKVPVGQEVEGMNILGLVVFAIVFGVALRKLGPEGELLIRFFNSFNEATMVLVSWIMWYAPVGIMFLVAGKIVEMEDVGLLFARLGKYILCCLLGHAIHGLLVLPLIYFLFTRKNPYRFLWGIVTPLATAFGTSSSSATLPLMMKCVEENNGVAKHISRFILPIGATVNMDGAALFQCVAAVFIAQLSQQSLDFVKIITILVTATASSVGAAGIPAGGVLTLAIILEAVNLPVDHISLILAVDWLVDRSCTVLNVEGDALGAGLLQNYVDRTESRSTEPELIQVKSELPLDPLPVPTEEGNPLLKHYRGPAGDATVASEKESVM

A549 [26] = assay: Inhibition of Gln uptake in human A549 cells assessed as reduction in fumarate level incubated for 24 hrs by LC-MS/MS analysis; format: functional, cell-based
[27] = Cmax in Sprague-Dawley rat at 10 mg/kg, ip incubated for 24 hrs by LC-MS/MS analysis; format: ADME, organism-based; conditions: in vivo

Structure (SMILES) | Activity (A549 [1]) | Activity (A549 [2]) | IC50 (NSCLC [3]) [µM] | IC50 (NSCLC [4]) [µM] | MRT inf [5] [h] | IC50 (NSCLC [6]) [µM] | Activity (A549 [7]) | Activity [8] | Activity (A549 [9]) | inhibition [10] | Tmax [11] [h] | Vd/F [12] [L/kg] | inhibition (A549 [13]) | Activity (A549 [14]) | half-life [15] [h] | inhibition (A549 [16]) | IC50 (NSCLC [17]) [µM] | half-life [18] [h] | Activity (A549 [19]) | Activity (A549 [20]) | other results
N[C@@H](CCN(Cc1ccccc1OCC#Cc1ccc(Cl)cc1)Cc1ccccc1OCC#Cc1ccc(Cl)cc1)C(=O)O | Active | Dose-Dependent Effect | 7.34 | 5.21 | 13.7 | 8.45 | Active | Toxic | Active | inactive | 1.17 | 49.5 | Active | Active | 0.619 | Active | 5.09 | 9.41 | Active | Active | inhibition [21]: inactive; inhibition (A549 [22]): Active; IC50 (A549 [23]): 10.3 µM; inhibition [24]: inactive; IC50 [25]: 5.6 µM; inhibition (A549 [26]): Active; Cmax [27]: 323 ng/mL
CC(C)(C)c1ccc(OCC#Cc2ccccc2)c(CN(CC[C@H](N)C(=O)O)Cc2cc(C(C)(C)C)ccc2OCC#Cc2ccccc2)c1 | Active | Dose-Dependent Effect | 0.12 | 2.85 | 20.7 | 1.09 | Active | Toxic | Active | inactive | 5.33 | 20 | Active | Active | 2.78 | Active | 8.08 | 19.4 | Active | Active | inhibition [21]: inactive; inhibition (A549 [22]): Active; IC50 (A549 [23]): 5.83 µM; inhibition [24]: inactive; IC50 [25]: 19.2 µM; inhibition (A549 [26]): Active; Cmax [27]: 874 ng/mL
